Results as given in ChEMBL document CHEMBL5244272 (Eur J Med Chem, 2021).

Experiments:
Type in all cases: functional, organism-based
Plasmodium falciparum [1] = assay: Antimalarial activity against Plasmodium falciparum K1; conditions: for EC50: read-out: EC50
Plasmodium falciparum [2] = assay: Antimalarial activity against Plasmodium falciparum 3D7
Plasmodium falciparum [3] = assay: Antimalarial activity against Plasmodium falciparum D6
Plasmodium falciparum [4] = assay: Antimalarial activity against Plasmodium falciparum W2
Plasmodium falciparum [5] = assay: Antimalarial activity against Plasmodium falciparum D10
Plasmodium falciparum [6] = assay: Antimalarial activity against Plasmodium falciparum NF54

CCCCCCCCS(=O)(=O)N1C(=O)[C@H](C)[C@@H]2CC[C@@H](C)[C@@H]3CC[C@]4(C)OO[C@]32[C@H]1O4
IC50 (Plasmodium falciparum [1]): 1.1 ng/mL | IC50 (Plasmodium falciparum [2]): 2.1 ng/mL

C[C@H]1[C@@H](OCc2ccc(C(=O)O)cc2)O[C@@H]2O[C@@]3(C)CC[C@H]4[C@H](C)CC[C@@H]1[C@@]24OO3
IC50 (Plasmodium falciparum [3]): 4.07 ng/mL | IC50 (Plasmodium falciparum [4]): 1.38 ng/mL

C[C@@H]1CC[C@H]2[C@@H](CCCc3ccccc3)C(=O)O[C@@H]3O[C@]4(C)CC[C@@H]1[C@]32OO4
IC50 (Plasmodium falciparum [3]): 0.9 ng/mL | IC50 (Plasmodium falciparum [4]): 1.35 ng/mL

C[C@@H]1CC[C@H]2[C@@H](CCCc3ccc(Cl)cc3)C(=O)O[C@@H]3O[C@]4(C)CC[C@@H]1[C@]32OO4
IC50 (Plasmodium falciparum [3]): 1.9 ng/mL | IC50 (Plasmodium falciparum [4]): 2.6 ng/mL

C[C@H]1[C@H](N2CCN([C@@H]3O[C@@H](C)[C@H](O)[C@@H](O)[C@H]3O)CC2)O[C@@H]2O[C@]3(C)CC[C@H]4[C@H](C)CC[C@@H]1[C@@]24OO3
IC50 (Plasmodium falciparum [4]): 0.74 nM | IC50 (Plasmodium falciparum [5]): 0.74 nM

CCCCCCCC[C@H]1CCC2C3CC[C@H]4C[C@]5(CC[C@]4(C)C3CC[C@@]21C)OO[C@]1(CC[C@@H]2CCC3C4CC[C@H](CCCCCCCC)[C@@]4(C)CCC3[C@@]2(C)C1)OO5 (stereo partly drawn)
IC50 (Plasmodium falciparum [3]): 155 nM

CS(=O)(=O)N1CCN(CCCOc2ccc(C3CCC4(CC3)OOC3(OO4)C4CC5CC(C4)CC3C5)cc2)CC1 (stereo not drawn)
IC50 (Plasmodium falciparum [2]): 3.7 nM

C[C@H]1[C@H](NS(N)(=O)=O)O[C@@H]2O[C@]3(C)CC[C@H]4[C@H](C)CC[C@@H]1[C@@]24OO3
IC50 (Plasmodium falciparum [4]): 2.04 nM | IC50 (Plasmodium falciparum [1]): 1.79 nM | IC50 (Plasmodium falciparum [6]): 3.1 nM

C[C@H]1[C@@H](O[C@H](CCC(=O)O)c2ccc(Cl)cc2)O[C@@H]2O[C@]3(C)CC[C@H]4[C@H](C)CC[C@@H]1[C@@]24OO3
IC50 (Plasmodium falciparum [3]): 0.38 ng/mL | IC50 (Plasmodium falciparum [4]): 0.357 ng/mL

CC1(C)OOC2(OCCc3ccccc3)CCCC1C2 (stereo not drawn)
IC50 (Plasmodium falciparum [4]): 250 nM | IC50 (Plasmodium falciparum [5]): 670 nM

C[C@@H]1CC[C@H]2[C@@H](C)C(=O)N(C(=O)c3ccc([N+](=O)[O-])cc3)[C@@H]3O[C@]4(C)CC[C@@H]1[C@@]23OO4
IC50 (Plasmodium falciparum [1]): 0.6 ng/mL | IC50 (Plasmodium falciparum [2]): 0.45 ng/mL

CCCCNC(=O)CCC(C)[C@H]1CCC2C3C(C[C@H](OC(C)=O)[C@@]21C)[C@@]1(C)CC[C@]2(C[C@@H]1C[C@H]3OC(C)=O)OO[C@@]1(CC[C@@H]3C[C@@H](OC(C)=O)C4C5CC[C@H](C(C)CCC(=O)NCCCC)[C@@]5(C)[C@@H](OC(C)=O)CC4[C@@]3(C)C1)OO2 (stereo partly drawn)
IC50 (Plasmodium falciparum [3]): 9.29 nM

CC1(C)OOC2(OCCCC34CC5CC(CC(C5)C3)C4)CCCC1C2 (stereo not drawn)
IC50 (Plasmodium falciparum [4]): 160 nM | IC50 (Plasmodium falciparum [5]): 240 nM

C[C@H]1[C@H](Nc2ccc(I)cc2)O[C@@H]2O[C@]3(C)CC[C@H]4[C@H](C)CC[C@@H]1[C@@]24OO3
IC50 (Plasmodium falciparum [3]): 0.33 ng/mL | IC50 (Plasmodium falciparum [4]): 0.33 ng/mL

C[C@@H]1CC[C@H]2[C@@H](C)C(=O)N(S(=O)(=O)c3cccc4cccnc34)[C@@H]3O[C@]4(C)CC[C@@H]1[C@@]23OO4
IC50 (Plasmodium falciparum [1]): 2 ng/mL | IC50 (Plasmodium falciparum [2]): 1.9 ng/mL

C[C@H]1[C@H](Nc2ccccc2)O[C@@H]2O[C@]3(C)CC[C@H]4[C@H](C)CC[C@@H]1[C@@]24OO3
IC50 (Plasmodium falciparum [3]): 0.66 ng/mL | IC50 (Plasmodium falciparum [4]): 0.66 ng/mL

C=C(c1ccc(F)cc1F)C1COC2(OO1)C1CC3CC(C1)CC2C3 (stereo not drawn)
IC50 (Plasmodium falciparum [2]): 25.7 nM

CC1=C(C(=O)c2ccccc2)O[C@@H]2O[C@]3(C)CC[C@H]4[C@H](C)CC[C@@H]1[C@@]24OO3
IC50 (Plasmodium falciparum [6]): 4.6 nM

C[C@@H]1CC[C@H]2[C@@H](CCCc3cc(C(F)(F)F)cc(C(F)(F)F)c3)C(=O)O[C@@H]3O[C@]4(C)CC[C@@H]1[C@]32OO4
IC50 (Plasmodium falciparum [3]): 0.78 ng/mL | IC50 (Plasmodium falciparum [4]): 7.11 ng/mL | IC50 (Plasmodium falciparum [1]): 4.06 ng/mL

COC(=O)Nc1nc2cc(C(=O)c3ccccc3)ccc2n1C(=O)O[C@H]1O[C@@H]2O[C@]3(C)CC[C@H]4[C@H](C)CC[C@@H]([C@H]1C)[C@@]24OO3
IC50 (Plasmodium falciparum [2]): 6.86 nM

CS(=O)(=O)N1CCN(CCOc2ccc(C3CCC4(CC3)OOC3(OO4)C4CC5CC(C4)CC3C5)cc2)CC1 (stereo not drawn)
IC50 (Plasmodium falciparum [2]): 3.5 nM

CCCCC(=O)C1=C(C)[C@@H]2CC[C@@H](C)[C@@H]3CC[C@]4(C)OO[C@@]23[C@H](O1)O4
IC50 (Plasmodium falciparum [6]): 4.3 nM

C[C@@H]1CC[C@H]2[C@@H](C)C(=O)N(C(=O)Cc3ccc([N+](=O)[O-])cc3)[C@@H]3O[C@]4(C)CC[C@@H]1[C@@]23OO4
IC50 (Plasmodium falciparum [1]): 0.4 ng/mL | IC50 (Plasmodium falciparum [2]): 0.6 ng/mL

C[C@@H]1CC[C@H]2[C@@H](C)C(=O)N(C(=O)c3cccc([N+](=O)[O-])c3)[C@@H]3O[C@]4(C)CC[C@@H]1[C@@]23OO4
IC50 (Plasmodium falciparum [1]): 0.6 ng/mL | IC50 (Plasmodium falciparum [2]): 0.46 ng/mL

CC(C)OC[C@H]1O[C@@H](O[C@H]2O[C@@H]3O[C@]4(C)CC[C@H]5[C@H](C)CC[C@@H]([C@H]2C)[C@@]35OO4)[C@H](O)[C@@H](O)[C@@H]1OC(C)C
IC50 (Plasmodium falciparum [3]): 1.43 ng/mL | IC50 (Plasmodium falciparum [4]): 0.31 ng/mL

C[C@H]1[C@@H](O[C@H](CCC(=O)O)c2ccc(Br)cc2)O[C@@H]2O[C@]3(C)CC[C@H]4[C@H](C)CC[C@@H]1[C@@]24OO3
IC50 (Plasmodium falciparum [3]): 0.405 ng/mL | IC50 (Plasmodium falciparum [4]): 0.313 ng/mL

COC(=O)CC[C@@H](C)[C@H]1CCC2C3CC[C@@H]4CC5(CC[C@]4(C)C3C[C@H](OC(C)=O)[C@@]21C)OOC(C)(C)OO5 (stereo partly drawn)
IC50 (Plasmodium falciparum [1]): 3 nM

c1cc(C2CCC3(CC2)OOC2(OO3)C3CC4CC(C3)CC2C4)ccc1OCCNC1CCOCC1 (stereo not drawn)
IC50 (Plasmodium falciparum [2]): 0.5 nM

CCCC[C@H]1O[C@@H]2O[C@]3(C)CC[C@H]4[C@H](C)CC[C@@H]([C@H]1C)[C@@]24OO3
IC50 (Plasmodium falciparum [3]): 0.41 ng/mL | IC50 (Plasmodium falciparum [4]): 0.16 ng/mL

C[C@@H]1CC[C@H]2[C@@H](C)C(=O)N(S(=O)(=O)c3ccc4ccccc4c3)[C@@H]3O[C@]4(C)CC[C@@H]1[C@@]23OO4
IC50 (Plasmodium falciparum [1]): 0.2 ng/mL | IC50 (Plasmodium falciparum [2]): 2.8 ng/mL

C[C@@H]1CCC[C@@H](C)C12OOC1(OO2)[C@@H](C)CCC[C@@H]1C
IC50 (Plasmodium falciparum [3]): > 1000 nM | IC50 (Plasmodium falciparum [4]): > 1000 nM

C[C@H]1[C@H](Nc2ccc(Br)cc2)O[C@@H]2O[C@]3(C)CC[C@H]4[C@H](C)CC[C@@H]1[C@@]24OO3
IC50 (Plasmodium falciparum [3]): 0.23 ng/mL | IC50 (Plasmodium falciparum [4]): 0.23 ng/mL

C[C@@H]1CC[C@H]2[C@H](C[C@@]3(CCCCCC[C@]4(C[C@@H]5C(=O)O[C@@H]6O[C@]7(C)CC[C@H]8[C@H](C)CC[C@@H]5[C@@]68OO7)C(=O)O[C@@H]5O[C@]6(C)CC[C@H]7[C@H](C)CC[C@@H]4[C@@]57OO6)C(=O)O[C@@H]4O[C@]5(C)CC[C@H]6[C@H](C)CC[C@@H]3[C@@]46OO5)C(=O)O[C@@H]3O[C@]4(C)CC[C@@H]1[C@]32OO4
EC50 (Plasmodium falciparum [1]): 20 nM

C[C@@H]1CC[C@H]2[C@H](C[C@@]3(CCCCCCCC4C(=O)O[C@@H]5O[C@]6(C)CC[C@H]7[C@H](C)CC[C@@H]4[C@@]57OO6)C(=O)O[C@@H]4O[C@]5(C)CC[C@H]6[C@H](C)CC[C@@H]3[C@@]46OO5)C(=O)O[C@@H]3O[C@]4(C)CC[C@@H]1[C@]32OO4 (stereo partly drawn)
EC50 (Plasmodium falciparum [1]): 3.1 nM

C[C@@H]1CC[C@H]2[C@@H](C)C(=O)N(S(=O)(=O)c3cccc([N+](=O)[O-])c3)[C@@H]3O[C@]4(C)CC[C@@H]1[C@@]23OO4
IC50 (Plasmodium falciparum [1]): 2.2 ng/mL | IC50 (Plasmodium falciparum [2]): 2.1 ng/mL

C[C@@H]1CC[C@H]2[C@@H](C)C(=O)N(S(=O)(=O)c3ccc(C(F)(F)F)cc3)[C@@H]3O[C@]4(C)CC[C@@H]1[C@@]23OO4
IC50 (Plasmodium falciparum [4]): 2.39 nM | IC50 (Plasmodium falciparum [1]): 3.15 nM | IC50 (Plasmodium falciparum [6]): 2.04 nM

C[C@@H]1CCCCC12OOC1(CCCC[C@@H]1C)OO2 (stereo partly drawn) [WR-148999]
IC50 (Plasmodium falciparum [3]): 8.4 nM | IC50 (Plasmodium falciparum [4]): 7.3 nM

C[C@@H]1CC[C@H]2[C@@H](CCCc3cc(F)cc(F)c3)C(=O)O[C@@H]3O[C@]4(C)CC[C@@H]1[C@]32OO4
IC50 (Plasmodium falciparum [3]): 0.82 ng/mL | IC50 (Plasmodium falciparum [4]): 6.5 ng/mL | IC50 (Plasmodium falciparum [1]): 3.2 ng/mL

C[C@H]1[C@@H](Nc2cccc(F)c2)O[C@@H]2O[C@]3(C)CC[C@H]4[C@H](C)CC[C@@H]1[C@@]24OO3
IC50 (Plasmodium falciparum [3]): < 0.16 ng/mL | IC50 (Plasmodium falciparum [4]): < 0.16 ng/mL

CCCCNC(=O)CCC(C)[C@H]1CCC2C3C(C[C@H](OC(C)=O)[C@@]21C)[C@@]1(C)CC[C@]2(C[C@@H]1C[C@H]3OC(C)=O)OO[C@@]1(CC[C@]3(C)C4C[C@H](OC(C)=O)[C@@]5(C)C(CC[C@@H]5C(C)CCC(=O)NCCCC)C4[C@H](OC(C)=O)C[C@H]3C1)OO2 (stereo partly drawn)
IC50 (Plasmodium falciparum [3]): 20.1 nM

COC(=O)CC(C)CO[C@H]1O[C@@H]2O[C@]3(C)CC[C@H]4[C@H](C)CC[C@@H]([C@H]1C)[C@@]24OO3 (stereo partly drawn)
IC50 (Plasmodium falciparum [3]): 1.91 ng/mL | IC50 (Plasmodium falciparum [4]): 0.48 ng/mL

COC(=O)CC[C@@H](C)[C@H]1CCC2C3CC[C@@H]4CC5(CC[C@]4(C)C3C[C@H](OC(C)=O)[C@@]21C)OOC(C)(C(F)(F)F)OO5 (stereo partly drawn)
IC50 (Plasmodium falciparum [1]): 7.6 nM

CCN(CC)Cc1ccc(C(C)O[C@H]2O[C@@H]3O[C@]4(C)CC[C@H]5[C@H](C)CC[C@@H]([C@H]2C)[C@@]35OO4)cc1O (stereo partly drawn)
IC50 (Plasmodium falciparum [1]): 0.18 ng/mL | IC50 (Plasmodium falciparum [6]): 0.36 ng/mL

C[C@H]1[C@@H](O[C@@H]2O[C@H](CO)[C@@H](O)[C@H](O)[C@H]2O)O[C@@H]2O[C@]3(C)CC[C@H]4[C@H](C)CC[C@@H]1[C@@]24OO3
IC50 (Plasmodium falciparum [3]): 2.48 ng/mL | IC50 (Plasmodium falciparum [4]): 0.19 ng/mL

CC1=C(C(O)(c2ccccc2)c2ccccc2)O[C@@H]2O[C@]3(C)CC[C@H]4[C@H](C)CC[C@@H]1[C@@]24OO3
IC50 (Plasmodium falciparum [6]): 4.5 nM

CC1(C)CCCCC12OOC1(CCCCC1(C)C)OO2 (stereo not drawn)
IC50 (Plasmodium falciparum [3]): > 1000 nM | IC50 (Plasmodium falciparum [4]): > 1000 nM

C[C@@H]1CC[C@H]2[C@H](C[C@@]3(CCCCCCC[C@]4(C[C@@H]5C(=O)O[C@@H]6O[C@]7(C)CC[C@H]8[C@H](C)CC[C@@H]5[C@@]68OO7)C(=O)O[C@@H]5O[C@]6(C)CC[C@H]7[C@H](C)CC[C@@H]4[C@@]57OO6)C(=O)O[C@@H]4O[C@]5(C)CC[C@H]6[C@H](C)CC[C@@H]3[C@@]46OO5)C(=O)O[C@@H]3O[C@]4(C)CC[C@@H]1[C@]32OO4
EC50 (Plasmodium falciparum [1]): 5.8 nM

C[C@H]1[C@H](N2CCNCC2)O[C@@H]2O[C@]3(C)CC[C@H]4[C@H](C)CC[C@@H]1[C@@]24OO3
IC50 (Plasmodium falciparum [6]): 3.2 nM
